Experimental data reported in US9018261B2, “Choline salt of an anti-inflammatory substituted cyclobutenedione compound” (Novartis AG, priority 2011, dated 2015).
Where a name gives a salt, the structure may show the parent alone.

How the values were obtained:
[1] = oral exposure in male SPRAGUE DAWLEY rats; format: in vivo; conditions: dosed at 10 mg/kg to male SPRAGUE DAWLEY rats
Experimental: (§1) The choline salt has also a much improved dissolution rate at pH 1 and oral exposure when dosed at 10 mg/kg to male SPRAGUE DAWLEY® rats compared to the free acid form.

[2] = conversion into free acid form in gastric acidic conditions; format: physicochemical
Text: The result of this is poor bioavailability of 6-chloro-3-[2-(1-ethyl-propylamino)-3,4-dioxo-cyclobut-1-enylamino]-2-hydroxy-N-methoxy-N-methyl-benzenesulfonamide.

[3] = pharmacokinetic study in male beagle dogs (plasma concentrations); conditions: dog, in vivo, 0.3 mg/kg
dissolution rate at pH 1 = format: physicochemical
Experimental: as §1

[4] = solubility in simulated gastric fluid; format: physicochemical
[5] = hygroscopicity (amount of water absorbed); format: physicochemical
Text: Furthermore, the hygroscopicity of the choline salt is much reduced compared with the free acid. The amount of water absorbed by the free acid is 2.4% and 2.8% by weight after 1 day at 80% and 92% humidity, respectively, and the amount of water absorbed by the choline salt is 0.7% and 0.6% by weight after 1 day at 80% and 92% humidity, respectively.

[6] = solubility in aqueous solution at pH 1.0-7.0; format: physicochemical; conditions: aqueous buffer, pH 1.0-7.0, as a free acid
Experimental: [drawing 1] is a weakly acidic compound and is practically insoluble in aqueous solution at pH 1.0-7.0 as a free acid (<0.005 mg/ml).

| Compound | oral exposure compared to the free acid form [1] | conversion into the free acid form [2] | systemic exposure after intravenous administration [3] [ng·h/mL] | dissolution rate compared to the free acid form (dissolution rate at pH 1) | solubility ([4]; simulated gastric fluid at pH 1.2) [µg/mL] | solubility in simulated gastric fluid compared to other salts ([4]; vs sodium, calcium, N,N-dimethyl-2-aminoethanol and N-(2-hydroxyethyl)pyrrolidine salts) | amount of water absorbed ([5]; after 1 day at 80% humidity) [% by weight] | amount of water absorbed ([5]; after 1 day at 92% humidity) [% by weight] | solubility [6] [µg/mL] |
| --- | --- | --- | --- | --- | --- | --- | --- | --- | --- |
| CCC(CC)Nc1c(Nc2ccc(Cl)c(S(=O)(=O)N(C)OC)c2O)c(=O)c1=O [choline salt, 6-chloro-3-[2-(1-ethyl-propylamino)-3,4-dioxo-cyclobut-1-enylamino]-2-hydroxy-N-methoxy-N-methyl-benzenesulfonamide choline] | much improved | readily converts | 912 ± 126 | much improved | 8020 | significantly improved | 0.7 | 0.6 | – |
| CCC(CC)Nc1c(Nc2ccc(Cl)c(S(=O)(=O)N(C)OC)c2O)c(=O)c1=O [free acid, 6-chloro-3-[2-(1-ethyl-propylamino)-3,4-dioxo-cyclobut-1-enylamino]-2-hydroxy-N-methoxy-N-methyl-benzenesulfonamide] | – | – | – | – | – | – | 2.4 | 2.8 | < 5 |
